# ChEMBL document CHEMBL1157539, “Thousands of chemical starting points for antimalarial lead identification” (Nature, 2010)
# Tested on: Plasmodium falciparum
# Assay: GSK_TCMDC: Inhibition of Plasmodium falciparum 3D7 in whole erythrocytes, using parasite LDH activity as an index of growth.
# Type: functional, organism-based
# Conditions: Plasmodium falciparum, 3D7
row,Compound,XC50
1,Cc1cccc2nc(-c3ccc(-c4cccc(CNCc5cccc(N)c5)c4)s3)[nH]c12,517 nM
2,Cc1cccc(Cl)c1S(=O)(=O)N1CCCCC(c2ccc(C(F)(F)F)cc2)=N1,216 nM
3,COc1ccccc1C1CCN(C2CCC(NC(=O)c3cc4ccccc4[nH]3)CC2)CC1 (stereo not given),1210 nM
4,CC(C)(C)c1ccc(-c2nnc(N)nc2N)cc1,862 nM
5,COc1cc(NC(=O)c2sc(-c3ccc(Cl)cc3)cc2NC(=O)c2cccc(N(C)C)c2)ccc1OCCN1CCCC1,709 nM
6,Nc1nc(N)c2c(Cc3ccc(Br)cc3)cccc2n1,775 nM
7,COC(=O)C1=CNC=C(C(=O)OC)C1c1ccc(Cl)c([N+](=O)[O-])c1,676 nM
8,Cc1cc(NC(=O)Nc2ccc(C(C)(C)C)cc2)c2ccccc2n1,719 nM
9,O=C(N[C@H]1CCN(Cc2ccc(OCCCN3CCCCC3)cc2)C1)c1ccc(Cl)c(Cl)c1,781 nM
10,CCn1cc(-c2cc(C(=O)Nc3ccc(OC)cc3C)c3ccccc3n2)c(C)n1,975 nM
11,Cc1noc(-c2cccs2)c1C(=O)NCCc1cccc(Cl)c1,463 nM
12,CCOC(=O)c1ccc(-c2c(C(F)(F)F)noc2-c2cc(CC)c(OC)cc2O)o1,206 nM
13,COc1ccc(CNC(=O)NC2CCN(c3ccnc(Nc4ccc(F)cc4)n3)CC2)cc1,1050 nM
14,CCOc1ccc(C(C)NC(=O)C2COc3ccccc3O2)cc1OCC (stereo not given),899 nM
15,Cc1ccc(C(=O)Nc2cccc([N+](=O)[O-])c2)cc1S(=O)(=O)N1CC(C)CC(C)C1 (stereo not given),794 nM
16,COc1ccc(NC(=O)C2c3ccccc3C(=O)N(C3CCCC3)C2c2cccs2)cc1 (stereo not given),1710 nM
17,COc1ccc(CN2CCC(CNC(C)c3cccc4ccccc34)CC2)cc1 (stereo not given),175 nM
18,Nc1c(Cl)cc(C(O)CNCCCCCOCCCc2ccc(O)c3ncccc23)cc1Cl (stereo not given),992 nM
19,CCCCCCn1c(Sc2ccc(C#N)c([N+](=O)[O-])c2)nnc1-c1ccc(OC)cc1,849 nM
20,CC(=O)N[C@@H]1c2cc(C(C)=O)ccc2OC(C)(C)[C@@H]1O,983 nM
21,COc1ccc2c(NN=Cc3ccncc3)ccnc2c1,956 nM
22,COc1cc(Cc2cnc(N)nc2N)ccc1OCc1ccc(NC(C)=O)cc1,368 nM
23,O=C(Cn1c(CCc2cccc(F)c2F)nc(=O)c2ccccc21)N(Cc1ccc(-c2ccc(C(F)(F)F)cc2)cc1)C1CCN(C2CCOCC2)CC1,745 nM
24,CC1(C)NC(N)=NC(=N)N1OCCCc1ccc(Cl)cc1Cl,3.2 nM
25,CC(C)(C)c1ccc(CN2CCC(NC(=O)c3cc(-c4cccc(C(F)(F)F)c4)cs3)C2)cc1 (stereo not given),805 nM

row,Compound,XC50
1,O=C(Nc1ccc(-c2cncc(NCCCN3CCCC3)c2)cc1)c1ccccc1,939 nM
2,CC(CCc1ccc(OCc2ccccc2)cc1)NCC(O)c1ccccc1 (stereo not given),1100 nM
3,c1ccc(-c2csc(Nc3nc4cc5c(cc4s3)OCO5)n2)nc1,579 nM
4,Cc1ccc(-n2cc(CNCCc3nc(C)c[nH]3)c(-c3ccc(F)cc3)n2)cc1,1510 nM
5,CCNc1cc(C(=O)N[C@@H](Cc2ccccc2)[C@H](O)CNCc2cc(OC)cc(OC)c2)cc(N2CCCS2(=O)=O)c1,43 nM
6,C#CC(C)(CO)N1CCCC1 (stereo not given),379 nM
7,O=c1[nH]c2c(cc1CNC1CCCCC1)c(-c1ccc(F)cc1)nn2-c1ccccc1,804 nM
8,CC1CCc2sc(-c3nnc(SC(C)C(=O)NC4CC4)o3)cc2C1 (stereo not given),1210 nM
9,CCCCCNc1nc(Nc2ccccc2C)nc2ccccc12,735 nM
10,CCCN1CCN(Cc2ccc(-c3ccc(-c4nc5ccccc5[nH]4)s3)cc2)CC1,611 nM
11,COc1ccc2c(c1)Sc1ccccc1C(N1CCN(CCO)CC1)C2 (stereo not given),1390 nM
12,Cc1cc2cc(-c3ccc(CN)cc3)ccc2nc1N,1130 nM
13,CCOC(=O)c1ccc(NC(=O)N(Cc2ccc(-c3ccc(CN4CCNCC4)cc3)cc2)C2CCN(Cc3ccccc3)CC2)cc1,797 nM
14,COc1ccc(-c2cnc(N)nc2N)cc1Cl,1400 nM
15,CCC[C@@H]([C@@H](CC1CCCCC1)C(=O)N[C@H](C(=O)Nc1ccccn1)[C@H](C)CC)N(O)C=O,533 nM
16,Cc1cc(Cl)c(S(=O)(=O)NC(C)(C)C)cc1OCC(=O)NC1CCCCC1,548 nM
17,CCCCNC[C@@H](O)[C@H](Cc1ccccc1)NC(=O)c1cc2c3c(c1)c(CC)cn3CCS(=O)(=O)N2C,196 nM
18,O=C(Cc1cccs1)NCC(c1ccccc1Cl)c1c[nH]c2ccccc12 (stereo not given),1150 nM
19,Cc1ccc(NC(=O)c2ccc(CN3CCCN(Cc4cccc(O)c4)CC3)cc2)cc1,743 nM
20,CC(CNCc1cn(Cc2cc(Br)cc(Br)c2)c2ccccc12)CNc1cc(=O)c2ccccc2[nH]1 (stereo not given),464 nM
21,COC(=O)CCCOc1cc(Cc2cnc(N)nc2N)cc(OC)c1OC,767 nM
22,COc1cccc2c(NN=Cc3cccc(F)c3)ccnc12,932 nM
23,Cc1ccc2nc3c(cc(C(=O)NCCc4ccccc4)c(=N)n3CCCOC(C)C)c(=O)n2c1,892 nM
24,Nc1ncc(OC2CCCCC2)c(N)n1,1070 nM
25,O=C(NC1CCN(Cc2ccccc2)CC1)c1cccc(-c2nc3ccc(Cl)cc3[nH]2)c1,864 nM

row,Compound,XC50
1,Cc1[nH]c2ccccc2c1C1=CCN(CC2CC2C(=O)c2ccccc2)CC1 (stereo not given),349 nM
2,COC(=O)c1cccc(CNCc2cccc(-c3csc(-c4nc5ccccc5[nH]4)c3)c2)c1,693 nM
3,CCOc1c(CNCCCCCCNCc2ccc3ccccc3c2OCC)ccc2ccccc12,759 nM
4,Clc1nc(Cl)c2c(ccn2Cc2ccccc2)n1,787 nM
5,Cc1cccc2nc(-c3ccc(-c4ccc(CN5CCCC(N)C5)cc4)cc3)[nH]c12 (stereo not given),350 nM
6,CCCC1(NC[C@@H](O)[C@H](Cc2ccccc2)NC(=O)c2cc(NCC)cc(N3CCCCS3(=O)=O)c2)CCCC1,505 nM
7,COc1ccc(-c2c3c(=O)n(C)c(=O)n(C)c3c3nnc4ccccc4n23)cc1,991 nM
8,O=C(NCC1CCN(Cc2cccc(F)c2)C1)c1cc(-c2cccc(C(F)(F)F)c2)cs1 (stereo not given),992 nM
9,COc1ccc2c(c1C1CCN(CCCCNC(=O)c3ccc(-c4ccc(Cl)cn4)cc3)CC1)CCCC2,1020 nM
10,O=C(Cc1ccc(Nc2nccc(Nc3cccc4[nH]ncc34)n2)cc1)Nc1ccc(C(F)(F)F)cc1,888 nM
11,COc1ccc(NC(=O)Nc2cc(C)nc3cccnc23)cc1Cn1ccnc1,736 nM
12,CN=C(NC)c1cccc(NC(=O)C=Cc2ccc(C=CC(=O)Nc3cccc(C(=NC)NC)c3)cc2)c1,164 nM
13,COc1cc(-c2cc3cc(Cl)c(Cl)cc3[nH]2)ccc1C(=O)NC1CCN(Cc2ccccc2)CC1,531 nM
14,Cc1ccccc1C1CCN(C2CCC(NC(=O)/C=C/c3ccc(Cl)cc3)CC2)CC1 (stereo not given),805 nM
15,COc1ccc(Oc2ccc(Nc3ccnc4ccc(C(F)(F)F)cc34)cc2)cc1OC,1060 nM
16,O=C(Nc1ccccc1C(F)(F)F)Nc1nn(Cc2c(F)cccc2Cl)cc1Br,337 nM
17,NC1=NC(c2ccccc2)(c2ccccc2)C(=O)N1Cc1ccccc1Br,865 nM
18,C=CCn1c(Sc2ccc(C#N)c([N+](=O)[O-])c2)nnc1-c1cccc(Cl)c1,301 nM
19,Cc1noc(C)c1-c1cccc(CNCc2ccc(-c3ccc(-c4nc5ccccc5[nH]4)s3)cc2)c1,556 nM
20,COc1cc(-n2cnc3cc(-c4ccc([N+](=O)[O-])cc4)sc3c2=O)ccc1OCCN1CCCC1,775 nM
21,Cc1cccc2nc(-c3cccc(-c4cccc(NC(=O)c5c[nH]cn5)c4)c3)[nH]c12,258 nM
22,CCCCCCCc1cc(O)c2c(c1)OC(C)(C)c1ccncc1-2,1150 nM
23,Cc1ccc(C)c(-n2c(SCC(=O)Nc3ccc(C(N)=O)cc3)nnc2-c2cccc(Cl)c2)c1,845 nM
24,COc1cc([N+](=O)[O-])ccc1NC(=O)c1cc(Cl)ccc1O,1140 nM
25,Cc1ccccc1C1CCN(C2CCC(NC(=O)c3ccc(-c4cccc(C(F)(F)F)c4)o3)CC2)CC1 (stereo not given),346 nM

row,Compound,XC50
1,CC(C)(C)NC(=O)c1ccc(Oc2ccc(OC(F)(F)F)cc2)c(NC(=O)C(C)(C)C)c1,977 nM
2,CC(C)NCc1ccc(-c2cccc(-c3nc4cc(C(F)(F)F)ccc4[nH]3)c2)cc1,262 nM
3,COC(=O)C(C)NCC(=O)c1ccccc1 (stereo not given),115 nM
4,COCCNCc1nc(-c2ccc3c(Nc4ccc(F)c(O)c4)ccnc3c2)cs1,695 nM
5,Cc1ccc(NC(=O)Nc2ccc(Br)cc2)cc1OCCN(C)C,975 nM
6,Cc1cc(O)c(-c2ccc(OCc3ccc(Cl)cc3)cc2)c(C)n1,732 nM
7,COc1cccc2[nH]c(NCCCNCc3cc(Br)cc(Br)c3)nc12,950 nM
8,Cc1cccc2nc(-c3cccc(-c4ccc(NC(=O)C(C)CN5CCOCC5)cc4)c3)[nH]c12 (stereo not given),689 nM
9,O=C(NCc1ccccc1)C1Cc2c([nH]c3ccc(Br)cc23)C2(CCN(Cc3ccccc3)CC2)N1 (stereo not given),873 nM
10,O=S(=O)(NCCN1CCCC1)c1ccc(-c2cccc(CNC3Cc4ccccc4C3)c2)cc1F,1020 nM
11,CCNc1cc(C(=O)N[C@@H](Cc2ccccc2)[C@H](O)CNC2CC3CCC2C3)cc(N2CCCCS2(=O)=O)c1 (stereo not given in full),237 nM
12,COc1ccc(N2CCN(CCCOc3ccc(NC(=O)c4cc(Cl)cc(Cl)c4)cc3)CC2)c(OC)c1,897 nM
13,CCn1c(-c2nonc2N)nc2c(-c3cccc(NC(=O)Nc4ccc(C#N)cc4)c3)ncc(OCCCN)c21,1510 nM
14,CN(C)CCOc1ccc(-c2cc(-c3ccc(Cl)c(O)c3)c(-c3ccncc3)[nH]2)cc1,580 nM
15,CN(Cc1ccc(NC(=O)NC2CCN(C(=O)/C=C/c3ccc(Cl)c(Cl)c3)CC2)cc1)C1CCOCC1,876 nM
16,COc1cccc(C(=O)Nc2ccc(Nc3nc(C)cc(N(C)C)n3)cc2)c1,940 nM
17,CCC(C)NS(=O)(=O)c1ccc2nc(Nc3ccc(C)cc3)n([C@H](C)C(C)(C)C)c2c1 (stereo not given in full),391 nM
18,COc1cc2c(cc1S(=O)(=O)c1ccc(NC(=O)Nc3ccc(F)cc3)cc1)CCN(C)CC2,473 nM
19,CC(C)C[C@H](NC(=O)c1ccc(OCCN2CCOCC2)cc1)C(=O)N[C@H](/C=N/N1CCNC1=O)CCc1ccccc1,365 nM
20,Cc1c(C(=O)C2CC2CN2CCC(N3CCCCC3)CC2)sc2ccccc12 (stereo not given),1020 nM
21,CC(C)c1ccc(-c2nc3cc(Cl)cnc3[nH]2)cc1,857 nM
22,O=C(NCCc1ccccc1)N(Cc1ccc(-c2cccc(CN3CCNCC3)c2)cc1)C1CCN(Cc2ccccc2)CC1,1360 nM
23,CCCCCNc1nc2nc(N)nc(N)c2nc1-c1ccccc1,954 nM
24,Cc1nnsc1C(=O)Nc1cccc(-c2ccc(-c3nc4cc(F)ccc4[nH]3)s2)c1,889 nM
25,CC[C@H]1CN2CC[C@@H]1C[C@H]2[C@H](O)c1cc(N2CCSCC2)nc2ccc(OC)cc12,199 nM
